The target in one series is rNHE3 (Rattus norvegicus, UniProt P26433). Nature of the series: recovery of intracellular pH (pHi) after acidification, BCECF fluorescence. Type of series: cell-based. The protocol: In this test, the recovery of the intracellular pH (pHi) after an acidification, which starts when the NHE is capable of functioning, even under bicarbonate-free conditions, was determined. For this purpose, the pHi was determined using the pH-sensitive fluorescent dye BCECF (calbiochem, the precursor BCECF-AM is employed). The cells were initially loaded with BCECF. The BCECF fluorescence was determined in a “ratio fluorescence spectrometer” (Photon Technology International, South Brunswick, N.J., USA) with excitation wavelengths of 505 and 440 nm and an emission wavelength of 535 nm, and was converted into the pHi using calibration plots. The cells were incubated in NH4Cl buffer (pH 7.4) (NH4Cl buffer: 115 mM NaCl, 20 mM NH4Cl, 5 mM KCl, 1 mM CaCl2, 1 mM MgSO4, 20 mM Hepes, 5 mM glucose, 1 mg/ml BSA; a pH of 7.4 is established with 1 M NaOH) even during the BCECF loading. The intracellular acidification was induced by addition of 975 μl of an NH4Cl-free buffer (see below) to 25 μl aliquots of the cells incubated in NH4Cl buffer. The subsequent rate of pH recovery was recorded in the case of NHE1 for two minutes, in the case of NHE2 for five minutes and in the case of NHE3 for three minutes. To calculate the inhibitory power of the tested substances, the cells were initially investigated in buffers in which complete or absolutely no pH recovery took place. For complete pH recovery (100%), the cells were incubated in Na^+-containing buffer (133.8 mM NaCl, 4.7 mM KCl, 1.25 mM CaCl2, 1.25 mM MgCl2, 0.97 mM Na2HPO4, 0.23 mM NaH2PO4, 5 mM Hepes, 5 mM glucose, a pH of 7.0 is established with 1 M NaOH). […] Recovery of the intracellular pH at the tested concentration of a substance was expressed as a percentage of the maximum recovery. Using the Sigma-Plot program, the IC50 value of the substance in question was calculated for the individual NHE subtypes using the percentages for pH recovery.

Series [1] has as its system adrenergic alpha2 receptor. As to conditions: cited from earlier work.
The next series has as its system imidazoline I1 receptor. To be noted: cited from earlier work.
For a further series, the target named is NHE3 (Oryctolagus cuniculus, UniProt P26432). To be noted: cited from earlier work.
[2] abbreviates: pH recovery recorded for three minutes, read-out: IC50 [μM], (rNHE3).

Structures are written as SMILES. Counter-ions that a name gives are not always drawn. Like-named read-outs stand apart in the source and are kept apart here.

Sequence of rNHE3 (P26433 29-831): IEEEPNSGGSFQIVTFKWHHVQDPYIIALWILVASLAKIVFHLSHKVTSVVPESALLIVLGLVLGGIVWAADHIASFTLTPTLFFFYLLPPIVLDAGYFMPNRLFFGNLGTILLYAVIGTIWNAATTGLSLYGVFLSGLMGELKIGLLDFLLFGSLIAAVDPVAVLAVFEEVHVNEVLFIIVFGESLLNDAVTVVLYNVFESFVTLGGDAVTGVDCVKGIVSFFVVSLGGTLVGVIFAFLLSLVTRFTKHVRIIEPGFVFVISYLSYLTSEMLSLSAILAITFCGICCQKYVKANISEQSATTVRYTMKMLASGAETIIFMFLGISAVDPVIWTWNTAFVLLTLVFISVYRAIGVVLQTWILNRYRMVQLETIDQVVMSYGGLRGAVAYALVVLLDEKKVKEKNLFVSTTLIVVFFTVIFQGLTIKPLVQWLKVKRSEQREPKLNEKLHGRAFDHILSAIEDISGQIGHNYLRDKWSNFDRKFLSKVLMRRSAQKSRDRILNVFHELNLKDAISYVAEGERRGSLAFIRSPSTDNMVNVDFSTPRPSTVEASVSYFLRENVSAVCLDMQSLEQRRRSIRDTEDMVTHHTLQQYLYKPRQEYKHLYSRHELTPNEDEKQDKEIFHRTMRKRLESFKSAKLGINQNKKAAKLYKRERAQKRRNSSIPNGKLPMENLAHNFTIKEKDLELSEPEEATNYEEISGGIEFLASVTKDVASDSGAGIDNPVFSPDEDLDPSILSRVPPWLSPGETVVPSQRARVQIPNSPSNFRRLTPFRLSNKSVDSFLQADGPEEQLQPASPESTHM
Sequence of NHE3 (P26432 30-832): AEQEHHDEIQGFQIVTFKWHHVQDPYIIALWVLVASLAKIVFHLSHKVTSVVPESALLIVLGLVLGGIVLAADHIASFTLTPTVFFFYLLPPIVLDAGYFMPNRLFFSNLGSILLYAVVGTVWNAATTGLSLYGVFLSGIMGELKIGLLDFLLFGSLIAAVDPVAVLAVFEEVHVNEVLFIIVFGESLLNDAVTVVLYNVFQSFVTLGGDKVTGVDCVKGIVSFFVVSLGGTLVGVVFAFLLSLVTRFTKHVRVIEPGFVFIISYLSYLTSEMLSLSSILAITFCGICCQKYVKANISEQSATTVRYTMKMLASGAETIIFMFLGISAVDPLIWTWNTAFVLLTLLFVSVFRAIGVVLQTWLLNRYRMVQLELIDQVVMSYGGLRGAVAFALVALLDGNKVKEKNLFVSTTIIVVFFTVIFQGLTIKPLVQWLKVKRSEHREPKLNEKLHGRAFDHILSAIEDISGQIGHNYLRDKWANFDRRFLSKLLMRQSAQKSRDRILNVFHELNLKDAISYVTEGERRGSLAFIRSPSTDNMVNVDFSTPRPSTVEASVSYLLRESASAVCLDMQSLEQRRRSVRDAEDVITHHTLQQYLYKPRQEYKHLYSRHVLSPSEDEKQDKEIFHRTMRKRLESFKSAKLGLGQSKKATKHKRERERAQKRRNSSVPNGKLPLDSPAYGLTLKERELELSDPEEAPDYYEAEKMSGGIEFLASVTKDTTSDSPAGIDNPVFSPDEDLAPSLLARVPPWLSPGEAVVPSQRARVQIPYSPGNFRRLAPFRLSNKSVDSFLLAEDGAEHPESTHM

One may read the melting point as the temperature of the solid-liquid transition. Compound `Cl.c1ccc(Oc2ccccc2N=C2N[C@@H]3CCCC[C@H]3N2)cc1` returned a melting point of 110 °C.
For orientation: IC50 means the point on the concentration scale where inhibition reaches its midpoint. Take `CC(C)[C@@H]1NC(=Nc2c(Cl)cccc2Cl)N[C@H]1C(C)C` (racemic) [Example 7, trans-(2,6-Dichlorophenyl)-(4,5-diisopropylimidazolidin-2-ylidene)amine hydrochloride]: the 50% inhibitory concentration (IC50) at rNHE3 (setting [2]) came to 1.1 µM.
`Cl.FC(F)(F)c1cccc(Cl)c1N=C1N[C@H]2CCCC[C@@H]2N1` (relative stereo) [Example 5, trans-(2-Chloro-6-trifluoromethylphenyl)-(octahydrobenzimidazol-2-ylidene)amine hydrochloride] yielded a melting point of 160 to 165 °C. Moreover, the IC50 on rNHE3 (setting [2]) turned out to be 19 µM.
As to `Clc1cccc(Cl)c1N=C1NCCN1` [Clonidine], in series [1], the “affinity for the adrenergic alpha2 receptor” value is given as “high affinity”. The “affinity for the imidazoline I1 receptor” value in the series on imidazoline I1 receptor is listed as “high affinity”.
At rNHE3, `CC1NC(=Nc2c(Cl)cccc2Cl)NC1C` (centres unmarked) [Example 12, (2,6-dichlorophenyl)-(4,5-dimethylimidazolidin-2-ylidene)amine nitric acid salt] gave an IC50 of around 3 µM.
`CC(C)[C@@H](CC[C@@H](C)[C@H]1CC[C@H]2[C@@H]3[C@H](O)C[C@H]4C[C@@H](NCCCNCCCCN)CC[C@]4(C)[C@H]3CC[C@]12C)OS(=O)(=O)O` [Squalamine]: the “time to maximum potency as NHE3 inhibitor” value at NHE3 is “reaches its maximum potency only after one hour”.

Values taken from patent publication US7179829B2, “Substituted imidazolidines, process for their preparation, and their use as a medicament or diagnostic, and medicament comprising them” (Sanofi-aventis Deutschland GmbH, priority 2001, dated 2007).
